Results: publication PMC4033654 (Journal of Medicinal Chemistry, 2014)
Each block holds one compound with its values, some of them ahead of it.

How the values were obtained:
[1] = test system: all human cancer cell lines successfully tested; assay: NCI60 anti-proliferative screen, all cell lines; type: cell-based
MCF-7 = details: read-out: cytotoxicity GI50, breast MCF-7; cited from earlier work
HOP-62 = details: read-out: cytotoxicity GI50, lung HOP-62; cited from earlier work
HCT-116 = details: read-out: cytotoxicity GI50, colon HCT-116; cited from earlier work
UACC-62 = details: read-out: cytotoxicity GI50, melanoma UACC-62; cited from earlier work
OVCAR-3 = details: read-out: cytotoxicity GI50, ovarian OVCAR-3; cited from earlier work
SN12C = details: read-out: cytotoxicity GI50, renal SN12C; cited from earlier work
DU-145 = details: read-out: cytotoxicity GI50, prostate DU-145; cited from earlier work
TDP1 = details: cited from earlier work
ABCG2 = details: cited from earlier work
MDR-1 = details: cited from earlier work
recombinant TDP1 = recombinant TDP1 (Homo sapiens, UniProt Q9NUW8); assay: Gel-based assay measuring the inhibition of recombinant TDP1; type: biochemical
Sequence of recombinant TDP1 (Q9NUW8 whole entry): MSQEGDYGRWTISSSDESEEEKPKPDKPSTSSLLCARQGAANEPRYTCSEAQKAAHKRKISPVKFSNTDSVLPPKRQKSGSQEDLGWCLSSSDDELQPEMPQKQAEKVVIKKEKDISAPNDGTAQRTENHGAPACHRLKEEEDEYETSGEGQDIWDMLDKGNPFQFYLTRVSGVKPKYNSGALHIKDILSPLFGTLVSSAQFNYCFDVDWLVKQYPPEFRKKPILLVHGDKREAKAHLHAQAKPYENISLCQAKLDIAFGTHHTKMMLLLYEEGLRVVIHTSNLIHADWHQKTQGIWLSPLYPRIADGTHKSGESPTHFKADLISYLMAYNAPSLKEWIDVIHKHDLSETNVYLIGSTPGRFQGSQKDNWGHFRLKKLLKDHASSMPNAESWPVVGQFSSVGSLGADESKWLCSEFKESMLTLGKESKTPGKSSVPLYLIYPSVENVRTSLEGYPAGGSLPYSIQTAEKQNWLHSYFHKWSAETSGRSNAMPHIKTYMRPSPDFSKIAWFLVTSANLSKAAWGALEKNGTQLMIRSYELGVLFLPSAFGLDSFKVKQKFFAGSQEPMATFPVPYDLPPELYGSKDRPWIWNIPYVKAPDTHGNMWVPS

SMILES: COc1cc2c(=O)n(CCCN3CCOCC3)c3c(c2cc1OCCCN)C(=O)c1cc2c(cc1-3)OCO2.Cl [compound 17, 2-(3-Aminopropoxy)-3-methoxy-6-(3-morpholinopropyl)-5H-[1,3]dioxolo[4′,5′:5,6]indeno[1,2-c]isoquinoline-5,12(6H)-dione]
- GI50 against various cell lines [1]: submicromolar

SMILES: COc1cc2c(=O)n(CCCN3CCOCC3)c3c(c2cc1O)C(=O)c1cc2c(cc1-3)OCO2 [compound 13]
- GI50 (MCF-7): 100 nM

SMILES: COc1cc2c3c(n(CCCNCCO)c(=O)c2cc1OC)-c1cc2c(cc1C3=O)OCO2 [compound 5]
- GI50 (HOP-62): 20 nM
- GI50 (HCT-116): 100 nM
- GI50 (UACC-62): 30 nM
- GI50 (OVCAR-3): 500 nM
- GI50 (SN12C): < 10 nM
- GI50 (DU-145): < 10 nM
- GI50 (MCF-7): < 10 nM

SMILES: N=C(N)c1ccc(-c2ccc(-c3ccc(C(=N)N)cc3)o2)cc1 [Furamidine (8), Furamidine]
- TDP1 inhibitor potency (TDP1): micromolar-range

SMILES: COc1cc2c(=O)n(CCCN3CCOCC3)c3c(c2cc1OCCCN1CCCCC1)C(=O)c1cc2c(cc1-3)OCO2 [compound 22, 3-Methoxy-6-(3-morpholinopropyl)-2-(3-(piperidin-1-yl)propoxy)-5H-[1,3]dioxolo[4′,5′:5,6]indeno[1,2-c]isoquinoline-5,12(6H)-dione]
- GI50 against various cell lines [1]: low micromolar

SMILES: COC(=O)COc1cc2c3c(n(CCCN4CCOCC4)c(=O)c2cc1OC)-c1cc2c(cc1C3=O)OCO2 [compound 24, Methyl 2-((3-Methoxy-6-(3-morpholinopropyl)-5,12-dioxo-6,12-dihydro-5H-[1,3]dioxolo[4′,5′:5,6]indeno[1,2-c]isoquinolin-2-yl)oxy)acetate]
- GI50 against various cell lines [1]: low micromolar

SMILES: COc1cc2c3c(n(CCCn4ccnc4)c(=O)c2cc1OC)-c1cc2c(cc1C3=O)OCO2 [indimitecan (7), indimitecan]
- substrate for the ABCG2 efflux pump (ABCG2): less affected than the camptothecins
- substrate for the MDR-1 efflux pump (MDR-1): less affected than the camptothecins

SMILES: COc1cc2c3c(n(CCCN4CCOCC4)c(=O)c2cc1OC)-c1cc2c(cc1C3=O)OCO2 [Indotecan (6), indotecan]
- substrate for the ABCG2 efflux pump (ABCG2): not a substrate
- substrate for the MDR-1 efflux pump (MDR-1): not a substrate

- TDP1 inhibitory activity (recombinant TDP1): no TDP1 inhibitory activity
SMILES: COc1cc2c(=O)n(CCCN3CCOCC3)c3c(c2cc1OCCCN1CCN(C)CC1)C(=O)c1cc2c(cc1-3)OCO2 [compound 21, 3-Methoxy-2-(3-(4-methylpiperazin-1-yl)propoxy)-6-(3-morpholinopropyl)-5H-[1,3]dioxolo[4′,5′:5,6]indeno[1,2-c]isoquinoline-5,12(6H)-dione]

- TDP1 inhibitory activity (recombinant TDP1): no detectable TDP1 inhibitory activity
SMILES: C=CCOc1cc2c3c(n(CCCN4CCOCC4)c(=O)c2cc1OC)-c1cc2c(cc1C3=O)OCO2 [compound 15, 2-(Allyloxy)-3-methoxy-6-(3-morpholinopropyl)-5H-[1,3]dioxolo[4′,5′:5,6]indeno [1,2-c]isoquinoline-5,12(6H)-dione]
- GI50 against various cell lines [1]: submicromolar

- TDP1 inhibitory activity (recombinant TDP1): no TDP1 inhibitory activity
SMILES: COc1cc2c(=O)n(CCCN3CCOCC3)c3c(c2cc1OCCCN1CCOCC1)C(=O)c1cc2c(cc1-3)OCO2 [compound 20, 3-Methoxy-2-(3-morpholinopropoxy)-6-(3-morpholinopropyl)-5H-[1,3]dioxolo[4′,5′:5,6]indeno[1,2-c]isoquinoline-5,12(6H)-dione]
- GI50 against various cell lines [1]: submicromolar
